# Values of other authors, collected in PubChem BioAssay AID1259409 (Chemical Carcinogenesis Research Information System (CCRIS), 2018).
# Tested on: rodent chemically induced tumor inhibition, incidence and multiplicity
# Experiment: CCRIS tumor inhibitor studies
smiles,measurement,setting,value
NCc1cc(=O)[nH]o1,"tumour outcome (control, treated, inhibition, significance)","Carcinogen: AZOXYMETHANE, 25843-45-2, Dose [Inhibitor]: 0, 0.5 MG/KG IN 2 ML/KG 0.9% SALINE 1/2 D CONCURRENTLY WITH CARCINOGEN AND CONTINUING FOR STUDY DURATION (STUDY DURATION, Route [Inhibitor]: INTRAPERITONEAL, Species: RAT, Strain/Sex: WISTAR/MALE, Target Tissue: Type of Lesion: COLON: ADENOMA, Dose [Carcinogen]: 7.4 MG/KG IN 0.9% SALINE 1/WK FOR 10 WK, Promoter: NONE USED","3/17 (18%), 8/19 (42%), -133%, not significant"
same,"tumour outcome (control, treated, inhibition, significance)","Carcinogen: N-METHYL-N'-NITRO-N-NITROSOGUANIDINE, 70-25-7, Dose [Inhibitor]: 0, 0.25 MG/KG IN NACL INJECTED 1/2 D FOR DURATION OF STUDY BEGINNING 1 WK POST CARCINOGEN DOSE (STUDY DURATION: 52 WK), Route [Inhibitor]: INTRAPERITONEAL, Species: RAT, Strain/Sex: WISTAR/MALE, Target Tissue: Type of Lesion: STOMACH: ADENOCARCINOMA, Dose [Carcinogen]: 50 UG/ML IN DRINKING WATER FOR 25 WK, Promoter: NONE USED","13/19 (68%), 12/20 (60%), 12%, not significant"
same,"tumour outcome (control, treated, inhibition, significance)","Carcinogen: N-METHYL-N'-NITRO-N-NITROSOGUANIDINE, 70-25-7, Dose [Inhibitor]: 0, 0.5 MG/KG BW 1/2 D FOR DURATION OF STUDY BEGINNING 1 WK POST LAST CARCINOGEN DOSE (STUDY DURATION: 52 WK), Route [Inhibitor]: INTRAPERITONEAL, Species: RAT, Strain/Sex: SHR/MALE, Target Tissue: Type of Lesion: STOMACH: ADENOCARCINOMA, Dose [Carcinogen]: 25 UG/ML IN DRINKING WATER FOR 25 WK, Promoter: NONE USED","10/20 (50%), 3/20 (15%), 70%, p<0.05"
same,"tumour outcome (control, treated, inhibition, significance)","Carcinogen: N-METHYL-N'-NITRO-N-NITROSOGUANIDINE, 70-25-7, Dose [Inhibitor]: 0, 0.5 MG/KG BW 1/2 D FOR DURATION OF STUDY BEGINNING 1 WK POST LAST CARCINOGEN DOSE (STUDY DURATION: 52 WK), Route [Inhibitor]: INTRAPERITONEAL, Species: RAT, Strain/Sex: WISTAR/MALE, Target Tissue: Type of Lesion: STOMACH: ADENOCARCINOMA, Dose [Carcinogen]: 25 UG/ML IN DRINKING WATER FOR 25 WK, Promoter: NONE USED","1/14 (7%), 0/15 (0%), 100%, not significant"
same,"tumour outcome (control, treated, inhibition, significance)","Carcinogen: N-METHYL-N'-NITRO-N-NITROSOGUANIDINE, 70-25-7, Dose [Inhibitor]: 0, 0.5 MG/KG IN NACL INJECTED 1/2 D FOR DURATION OF STUDY BEGINNING 1 WK POST CARCINOGEN DOSE (STUDY DURATION: 52 WK), Route [Inhibitor]: INTRAPERITONEAL, Species: RAT, Strain/Sex: WISTAR/MALE, Target Tissue: Type of Lesion: STOMACH: ADENOCARCINOMA, Dose [Carcinogen]: 50 UG/ML IN DRINKING WATER FOR 25 WK, Promoter: NONE USED","13/19 (68%), 12/18 (67%), 2%, not calculated"
CC[C@@H](C)[C@@H](N)C(=O)OC,"tumour outcome (control, treated, inhibition, significance)","Carcinogen: 7,12-DIMETHYLBENZ[A]ANTHRACENE, 57-97-6, Dose [Inhibitor]: 0, 1 MG IN 0.2 ML ACETONE APPLIED 30 MIN AFTER EACH MEZEREIN DOSE (STUDY DURATION: 20 WK), Route [Inhibitor]: DERMAL, Species: MOUSE, Strain/Sex: SENCAR/FEMALE, Target Tissue: Type of Lesion: SKIN: PAPILLOMA, Dose [Carcinogen]: 0.1 UMOL IN 0.2 ML ACETONE ONCE, Promoter: TPA, 16561-29-8, MEZEREIN, 37807-41-5, Promoter: TPA, 16561-29-8, MEZEREIN, 37807-41-5","100%, 76%, 24%, p<0.005"
same,"tumour outcome (control, treated, inhibition, significance)","Carcinogen: 7,12-DIMETHYLBENZ[A]ANTHRACENE, 57-97-6, Dose [Inhibitor]: 0, 1 MG IN 0.2 ML ACETONE APPLIED 30 MIN AFTER EACH TPA DOSE (STUDY DURATION: 20 WK), Route [Inhibitor]: DERMAL, Species: MOUSE, Strain/Sex: SENCAR/FEMALE, Target Tissue: Type of Lesion: SKIN: PAPILLOMA, Dose [Carcinogen]: 0.1 UMOL IN 0.2 ML ACETONE ONCE, Promoter: TPA, 16561-29-8, MEZEREIN, 37807-41-5, Promoter: TPA, 16561-29-8, MEZEREIN, 37807-41-5","100%, 83%, 17%, p<0.005"
C#CCN(C)[C@H](C)Cc1ccccc1,"tumour outcome (control, treated, inhibition, significance)","Carcinogen: 7,12-DIMETHYLBENZ[A]ANTHRACENE [57-97-6], Dose [Inhibitor]: 0.25 MG/KG BW/D FOR 4 WK BEGINNING 4 WK PRIOR TO FIRST CARCINOGEN DOSE (STUDY DURATION: 32 WK), Route [Inhibitor]: INTRAPERITONEAL, Species: RAT, Strain/Sex: SPRAGUE-DAWLEY/FEMALE, Target Tissue: Type of Lesion: MAMMARY GLAND: TUMOR, Dose [Carcinogen]: 10 MG IN 1 ML PEANUT OIL ONCE (STUDY DURATION: 32 WK), Promoter: NONE","13/15 (87%), 8/15 (53%), 39%, not significant"
same,"tumour outcome (control, treated, inhibition, significance)","Carcinogen: 7,12-DIMETHYLBENZ[A]ANTHRACENE [57-97-6], Dose [Inhibitor]: 0.25 MG/KG BW/D FOR 4 WK BEGINNING 4 WK PRIOR TO FIRST CARCINOGEN DOSE, FOLLOWED BY 0.25 MG/KG BW/D FOR 27 WK POST LAST, Route [Inhibitor]: INTRAPERITONEAL, Species: RAT, Strain/Sex: SPRAGUE-DAWLEY/FEMALE, Target Tissue: Type of Lesion: MAMMARY GLAND: TUMOR, Dose [Carcinogen]: 10 MG IN 1 ML PEANUT OIL ONCE (STUDY DURATION: 32 WK), Promoter: NONE","13/15 (87%), 9/15 (60%), 31%, not significant"
same,"tumour outcome (control, treated, inhibition, significance)","Carcinogen: 7,12-DIMETHYLBENZ[A]ANTHRACENE [57-97-6], Dose [Inhibitor]: 0.25 MG/KG BW/D FOR 27 WK BEGINNING 4 D POST LAST CARCINOGEN DOSE (STUDY DURATION: 32 WK), Route [Inhibitor]: INTRAPERITONEAL, Species: RAT, Strain/Sex: SPRAGUE-DAWLEY/FEMALE, Target Tissue: Type of Lesion: MAMMARY GLAND: TUMOR, Dose [Carcinogen]: 10 MG IN 1 ML PEANUT OIL ONCE (STUDY DURATION: 32 WK), Promoter: NONE","13/15 (87%), 10/15 (67%), 23%, not significant"
same,"tumour outcome (control, treated, inhibition, significance)","Carcinogen: 7,12-DIMETHYLBENZ[A]ANTHRACENE [57-97-6], Dose [Inhibitor]: 2.5 MG/KG BW/D FOR 4 WK BEGINNING 4 WK PRIOR TO FIRST CARCINOGEN DOSE (STUDY DURATION: 32 WK), Route [Inhibitor]: INTRAPERITONEAL, Species: RAT, Strain/Sex: SPRAGUE-DAWLEY/FEMALE, Target Tissue: Type of Lesion: MAMMARY GLAND: TUMOR, Dose [Carcinogen]: 10 MG IN 1 ML PEANUT OIL ONCE (STUDY DURATION: 32 WK), Promoter: NONE","13/15 (87%), 8/15 (53%), 39%, not significant"
same,"tumour outcome (control, treated, inhibition, significance)","Carcinogen: 7,12-DIMETHYLBENZ[A]ANTHRACENE [57-97-6], Dose [Inhibitor]: 2.5 MG/KG BW/D FOR 4 WK BEGINNING 4 WK PRIOR TO FIRST CARCINOGEN DOSE, FOLLOWED BY 2.5 MG/KG BW/D FOR 27 WK POST LAST CA, Route [Inhibitor]: INTRAPERITONEAL, Species: RAT, Strain/Sex: SPRAGUE-DAWLEY/FEMALE, Target Tissue: Type of Lesion: MAMMARY GLAND: TUMOR, Dose [Carcinogen]: 10 MG IN 1 ML PEANUT OIL ONCE (STUDY DURATION: 32 WK), Promoter: NONE","13/15 (87%), 5/15 (33%), 62%, p<0.0001"
same,"tumour outcome (control, treated, inhibition, significance)","Carcinogen: 7,12-DIMETHYLBENZ[A]ANTHRACENE [57-97-6], Dose [Inhibitor]: 2.5 MG/KG BW/D FOR 27 WK BEGINNING 4 D POST LAST CARCINOGEN DOSE (STUDY DURATION: 32 WK), Route [Inhibitor]: INTRAPERITONEAL, Species: RAT, Strain/Sex: SPRAGUE-DAWLEY/FEMALE, Target Tissue: Type of Lesion: MAMMARY GLAND: TUMOR, Dose [Carcinogen]: 10 MG IN 1 ML PEANUT OIL ONCE (STUDY DURATION: 32 WK), Promoter: NONE","13/15 (87%), 6/15 (40%), 54%, p<0.0001"
Nc1nc(N)c2nc(CNc3ccc(C(=O)N[C@@H](CCC(=O)O)C(=O)O)cc3)cnc2n1,"tumour outcome (control, treated, inhibition, significance)","Carcinogen: URETHANE, 51-79-6, Dose [Inhibitor]: 0.25 UG/G BW IN DISTILLED WATER 1/D FOR 3 D FOLLOWED BY 0.5 UG/G BW ONCE ADMINISTERED AT SAME TIME AS CARCINOGEN TREATME, Route [Inhibitor]: INTRAPERITONEAL, Species: MOUSE, Strain/Sex: SWR/MALE, Target Tissue: Type of Lesion: LUNG: ADENOMA, Dose [Carcinogen]: 0.5 MG/G BW IN DISTILLED WATER ONCE AT 13 WK OF AGE, Promoter: NONE USED","90%, 74%, 18%, not significant"
same,"tumour outcome (control, treated, inhibition, significance)","Carcinogen: URETHANE, 51-79-6, Dose [Inhibitor]: 0.25 UG/G BW IN DISTILLED WATER 1/D FOR 3 D FOLLOWED BY 0.5 UG/G BW ONCE ADMINISTERED AT SAME TIME AS CARCINOGEN TREATME, Route [Inhibitor]: INTRAPERITONEAL, Species: MOUSE, Strain/Sex: SWR/MALE, Target Tissue: Type of Lesion: LUNG: ADENOMA, Dose [Carcinogen]: 0.5 MG/G BW IN DISTILLED WATER ONCE AT 15 WK OF AGE, Promoter: NONE USED","82%, 90%, -10%, not significant"
